Data taken from PMC6423038, “Deferiprone: Pan-selective Histone Lysine Demethylase Inhibition Activity and Structure Activity Relationship Study” (Scientific Reports, 2019).

How the values were obtained:
VERO = assay: Cell viability assay (MTS), antiproliferative activity; assay type: cell-based; details: Chlorocebus sabaeus, 72 h
Procedure: (§1) To preliminarily profile the bioactivity of these compounds, we adopted a streamlined approach which involved screening against KDM6A at two concentrations and evaluating antiproliferative activity against three representative cell lines – MCF-7 (ER(+) BCa), MDA-MB-231 (TNBC BCa) and Vero (a non-transformed cell line as control).
(§2) The In vitro proliferation assay was performed as reported previously[15],[16]. Detailed description of the protocol used is included in the Supplementary Information.
(§3) Cell Viability Assay. All cell lines were purchased form ATCC (Manassas, VA), and they were routinely cultured in different media recommended by the supplier. MCF-7 cells were cultured in non-phenol red DMEM (Corning, Manassas, VA) fortified with 10% charcoal treated fetal bovine serum (FBS; Atlanta Biologicals, GA) and 0.2 mM glutamine (Corning, Manassas, VA), whereas MDA-MB-231, DU-145, and Vero were cultured in DMEM with 10% FBS. […] After 24 h incubation in 37 °C under 5% CO2, cells were treated with serially diluted ligands with final DMSO concentration of 1% and incubated for additional 72 h. MTS (CellTiter 96 Aqueous One Solution Cell Proliferation Assays, Promega, Madison, WI) was added to each well 2.5 h prior to recording the absorbance at 490 nm.

MCF-7 = assay: as above; assay type: cell-based; details: Homo sapiens, MCF7, 72 h
Procedure: as §1, §2, §3

MDA-MB-231 = assay: as above; assay type: cell-based; details: Homo sapiens, 72 h
Procedure: as §1, §2, §3

KDM6A (UTX) = target: T1, KDM6A (UTX) (Homo sapiens, UniProt O15550); assay: KDM cell-free assay (AlphaScreen, BPS Bioscience); assay type: biochemical; details: for IC50: Fig. 9A, read-out: IC50 (KDM6A inhibition dose response curve)
T1 construct: purchased BPS Bioscience

[1] = Table 5, values calculated by linear regression

T1 sequence (O15550 whole entry): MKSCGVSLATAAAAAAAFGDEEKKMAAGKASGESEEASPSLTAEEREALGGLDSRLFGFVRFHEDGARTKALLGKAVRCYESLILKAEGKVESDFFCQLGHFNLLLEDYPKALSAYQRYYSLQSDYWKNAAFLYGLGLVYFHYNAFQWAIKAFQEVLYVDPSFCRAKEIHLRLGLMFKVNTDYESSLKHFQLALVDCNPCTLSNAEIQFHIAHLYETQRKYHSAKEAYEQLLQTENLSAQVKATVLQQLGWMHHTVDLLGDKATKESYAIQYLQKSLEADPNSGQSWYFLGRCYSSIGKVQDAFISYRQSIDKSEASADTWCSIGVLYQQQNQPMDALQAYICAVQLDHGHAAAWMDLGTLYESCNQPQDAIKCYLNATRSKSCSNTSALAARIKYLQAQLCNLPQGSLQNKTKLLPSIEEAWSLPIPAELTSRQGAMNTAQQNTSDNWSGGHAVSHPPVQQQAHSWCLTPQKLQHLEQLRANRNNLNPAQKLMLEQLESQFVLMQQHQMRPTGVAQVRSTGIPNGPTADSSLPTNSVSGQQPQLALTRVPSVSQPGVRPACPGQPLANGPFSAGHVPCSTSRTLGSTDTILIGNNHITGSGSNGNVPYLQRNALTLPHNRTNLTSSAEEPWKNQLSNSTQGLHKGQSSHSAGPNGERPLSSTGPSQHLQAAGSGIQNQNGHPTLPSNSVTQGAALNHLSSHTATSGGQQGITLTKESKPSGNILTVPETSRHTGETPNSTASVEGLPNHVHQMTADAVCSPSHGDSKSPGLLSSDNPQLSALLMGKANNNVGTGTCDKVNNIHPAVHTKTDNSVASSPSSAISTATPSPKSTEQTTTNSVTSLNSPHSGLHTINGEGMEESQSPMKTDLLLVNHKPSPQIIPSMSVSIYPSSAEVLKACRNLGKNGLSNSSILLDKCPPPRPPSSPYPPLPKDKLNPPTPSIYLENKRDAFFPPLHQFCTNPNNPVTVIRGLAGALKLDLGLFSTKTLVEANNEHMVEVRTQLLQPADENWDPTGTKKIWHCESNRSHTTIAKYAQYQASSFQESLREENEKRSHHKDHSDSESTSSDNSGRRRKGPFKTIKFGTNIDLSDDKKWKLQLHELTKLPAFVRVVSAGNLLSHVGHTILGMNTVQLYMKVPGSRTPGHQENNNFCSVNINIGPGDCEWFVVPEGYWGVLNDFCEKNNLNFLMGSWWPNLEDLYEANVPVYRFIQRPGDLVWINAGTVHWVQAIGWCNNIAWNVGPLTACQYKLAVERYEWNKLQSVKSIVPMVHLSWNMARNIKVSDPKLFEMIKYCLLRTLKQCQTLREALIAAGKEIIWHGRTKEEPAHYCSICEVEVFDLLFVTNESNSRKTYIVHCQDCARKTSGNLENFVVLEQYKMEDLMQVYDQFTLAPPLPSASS

Row | SMILES | IC50 (VERO; Table 5) [µM] | IC50 (MCF-7; Table 5) [µM] | IC50 (MDA-MB-231; Table 5) [µM] | inhibition at 1 µM (KDM6A (UTX); Table 2) [%] | inhibition at 10 µM (KDM6A (UTX); Table 2) [%] | further results
1 | Cc1cccc(-c2cn(CCCCCn3ccc(=O)c(O)c3C)nn2)c1 [2d] | 3.6 | > 50 | 11.8 |  |  | 
2 | Cc1c(O)c(=O)ccn1Cc1ccc(Cn2ccc(=O)c(O)c2C)cc1 [3f] |  |  |  |  |  | IC50 (VERO; Table 6): > 50 µM; IC50 (MCF-7; Table 6, values calculated by linear regression): 378 µM; IC50 (MDA-MB-231; Table 6): 25 µM; inhibition at 1 µM (KDM6A (UTX); Table 3): 5%; inhibition at 10 µM (KDM6A (UTX); Table 3): 100%
3 | Cc1c(O)c(=O)ccn1CCCCCn1cc(-c2ccccn2)nn1 [2s] | > 50 | > 50 | > 50 | 15 | 99 | 
4 | COc1ccc(-c2cn(CCCCn3ccc(=O)c(O)c3C)nn2)cc1 [2k] | > 50 | > 50 | 8.1 |  |  | 
5 | Cc1cccc(-c2cn(CCCCn3ccc(=O)c(O)c3C)nn2)c1 [2c] | 5.2 |  | 10.9 | 4 | 100 | IC50 (MCF-7; [1]): 62.7 µM
6 | COc1cccc(-c2cn(CCCCn3ccc(=O)c(O)c3C)nn2)c1 [2i] | > 50 |  | 7.5 | 7 | 100 | IC50 (MCF-7; [1]): 54.8 µM
7 | COc1ccc(-c2cn(CCCCCn3ccc(=O)c(O)c3C)nn2)cc1 [2l] | > 50 | > 50 | 9.6 | 4 | 100 | 
8 | Cc1c(O)c(=O)ccn1CCCCCn1cc(-c2ccccc2)nn1 [1d] |  |  |  | 12 | 100 | IC50 (VERO; Table 4): > 50 µM; IC50 (MCF-7; Table 4): > 50 µM; IC50 (MDA-MB-231; Table 4): 11.4 µM; IC50 (KDM6A (UTX)): 3.3 µM
9 | Cc1c(O)c(=O)ccn1CCCCCn1cc(-c2ccccc2F)nn1 [2m] | 12.7 | > 50 | 18.3 | 16 | 100 | 
10 | Cc1c(O)c(=O)ccn1CCCCCCCn1ccc(=O)c(O)c1C [3d] |  |  |  |  |  | IC50 (VERO; Table 6): > 50 µM; IC50 (MCF-7; Table 6): > 50 µM; IC50 (MDA-MB-231; Table 6): > 50 µM; inhibition at 1 µM (KDM6A (UTX); Table 3): 3%; inhibition at 10 µM (KDM6A (UTX); Table 3): 100%
11 | Cc1ccc(-c2cn(CCCCn3ccc(=O)c(O)c3C)nn2)cc1 [2e] | 4.1 | > 50 | 7.4 | 13 | 100 | 
12 | Cc1c(O)c(=O)ccn1CCCCCCn1cc(-c2ccc(-c3ccncc3)cc2)nn1 [2u] | 66.9 | > 50 | 1.7 | 15 | 99 | IC50 (KDM6A (UTX)): 5.1 µM
13 | Cc1c(O)c(=O)ccn1CCCCCCn1ccc(=O)c(O)c1C [3c] |  |  |  |  |  | IC50 (VERO; Table 6): > 50 µM; IC50 (MCF-7; Table 6): > 50 µM; IC50 (MDA-MB-231; Table 6): > 50 µM; inhibition at 1 µM (KDM6A (UTX); Table 3): 2%; inhibition at 10 µM (KDM6A (UTX); Table 3): 100%
14 | Cc1ccccc1-c1cn(CCCCCn2ccc(=O)c(O)c2C)nn1 [2b] | 5.8 | > 50 | 12.7 |  |  | 
15 | Cc1c(O)c(=O)ccn1[C@H]1CC[C@H](n2ccc(=O)c(O)c2C)CC1 [3e] |  |  |  |  |  | IC50 (VERO; Table 6): > 50 µM; IC50 (MCF-7; Table 6): > 50 µM; IC50 (MDA-MB-231; Table 6): 36.9 µM; inhibition at 1 µM (KDM6A (UTX); Table 3): 5%; inhibition at 10 µM (KDM6A (UTX); Table 3): 100%
16 | Cc1c(O)c(=O)ccn1CCCCn1ccc(=O)c(O)c1C [3a] |  |  |  |  |  | IC50 (VERO; Table 6): > 50 µM; IC50 (MCF-7; Table 6): > 50 µM; IC50 (MDA-MB-231; Table 6): > 50 µM; inhibition at 1 µM (KDM6A (UTX); Table 3): 4%; inhibition at 10 µM (KDM6A (UTX); Table 3): 100%
17 | Cc1c(O)c(=O)ccn1CCCCCn1cc(-c2ccc(N(C)C)cc2)nn1 [2r] | > 50 | > 50 | 12.5 |  |  | 
18 | COc1ccccc1-c1cn(CCCCCn2ccc(=O)c(O)c2C)nn1 [2h] | > 50 | > 50 | 19.1 | 3 | 99 | 
19 | Cc1ccccc1-c1cn(CCCCn2ccc(=O)c(O)c2C)nn1 [2a] | 11.6 |  | 16.4 | 6 | 100 | IC50 (MCF-7; [1]): 42.5 µM
20 | Cc1c(O)c(=O)ccn1CCCCCn1ccc(=O)c(O)c1C [3b] |  |  |  |  |  | IC50 (VERO; Table 6): > 50 µM; IC50 (MCF-7; Table 6): > 50 µM; IC50 (MDA-MB-231; Table 6): > 50 µM; inhibition at 1 µM (KDM6A (UTX); Table 3): 1%; inhibition at 10 µM (KDM6A (UTX); Table 3): 99%
21 | Cc1c(O)c(=O)ccn1CCCCn1cc(-c2ccc(N(C)C)cc2)nn1 [2q] | > 50 | > 50 | 9.5 |  |  | 
22 | COc1ccccc1-c1cn(CCCCn2ccc(=O)c(O)c2C)nn1 [2g] | > 50 |  | 9.6 |  |  | IC50 (MCF-7; [1]): 66.1 µM
23 | Cc1c(O)c(=O)ccn1CCCCCn1cc(-c2ccc(F)cc2)nn1 [2o] | 38.8 | > 50 | 3.6 | 10 | 100 | 
24 | Cc1c(O)c(=O)ccn1CCCCCCn1cc(-c2ccccc2)nn1 [1e] |  |  |  | 12 | 98 | IC50 (VERO; Table 4): > 35 µM; IC50 (MCF-7; Table 4): > 50 µM; IC50 (MDA-MB-231; Table 4): 12.5 µM
25 | Cc1c(O)c(=O)ccn1CCCCCn1cc(-c2ccccc2C(F)(F)F)nn1 [2p] | 13.3 | > 50 | 18.8 | 15 | 99 | 
26 | Cc1c(O)c(=O)ccn1CCCCCn1cc(-c2cccc(F)c2)nn1 [2n] | 22.9 | > 50 | 6.8 | 5 | 100 | 
